Test results from US9187749B2, “Methods for modulating factor 12 expression” (Isis Pharmaceuticals, Inc., priority 2011, dated 2015).
e = 2'-O-(2-methoxyethyl) (MOE); d = 2'-deoxy (DNA)

What was measured:
mice [1] = experiment: Vascular leakage, Evans Blue in plasma, captopril-induced (Example 4); type: in vivo, mouse; conditions: HOE-140 30 μg ip, percentage increase or decrease vs Group 1 PBS
Method: Groups 4, 5, 6, 7, 8, and 9 consisted of 8 mice each and were treated with 2.5 mg/kg, 5 mg/kg, 10 mg/kg, 20 mg/kg, 40 mg/kg, or 80 mg/kg (corresponding to 5 mg/kg, 10 mg/kg, 20 mg/kg, 40 mg/kg, 80 mg/kg, or 160 mg/kg per week), respectively, of ISIS 410944 administered subcutaneously twice a week for 3 weeks. At the end of the treatment period, the mice of all the groups were intraperitoneally administered 20 μg of captopril. Groups 4-9 served as the experimental treatment groups for examining the effect of varying doses of ISIS 410944 on captopril-induced vascular permeability.
All the groups were then injected with 30 mg/kg of Evans Blue solution in the tail vein. The mice were sacrificed 30 min after the Evans Blue solution administration and colons, feet, ears, and intestines were harvested. Blood samples were taken through cardiac puncture.
The blood drawn through cardiac puncture was immediately mixed with 3 times the volume of ice-cold ethanol. The solution was centrifuged at 15,000 g for 20 minutes at 4° C. to remove cell debris and precipitated plasma proteins. The ethanol extracts were further purified by ultra-filtration through a 10 kDa MWCO filter. The color intensity of the ethanol extracted plasma solution was then measured at OD620nm. The results are presented in Table 7 as percentage increase or decrease of the OD values of the Group 1 PBS control.

C1-INH mRNA = experiment: Liver RT-PCR of C1-INH mRNA, C1-INH ASO-induced angioedema model (Example 9); type: in vivo, mouse; conditions: all groups given ISIS 461756 12.5 mg/kg sc twice a week, test ASO 40 mg/kg sc twice a week 3 weeks, vs PBS control not treated with ISIS 461756
Method: (§1) Vascular permeability induced by ISIS 461756, an antisense oligonucleotide which targets murine C1 inhibitor mRNA, increases vascular permeability in mice and replicates the pathology of hereditary angioedema. The effect of ISIS 410944 on this model was evaluated.
(§2) One group of 8 mice was treated with 40 mg/kg ISIS 410944 administered subcutaneously twice a week for 3 weeks (weekly dose of 80 mg/kg). A second group of 8 mice was treated with 40 mg/kg of the control oligonucleotide, ISIS 141923, administered subcutaneously twice a week for 3 weeks (weekly dose of 80 mg/kg). A third group of 8 mice was treated with PBS administered subcutaneously twice a week for 3 weeks. On day 14, all the groups were treated with 12.5 mg/kg ISIS 461756 administered subcutaneously twice a week for 3 weeks (weekly dose of 25 mg/kg). A control group of mice was treated with PBS administered subcutaneously twice a week for 3 weeks but was not administered ISIS 461756.
(§3) At the end of the treatment period, all the groups were injected with 30 mg/kg of Evans Blue solution into the tail vein. The mice were sacrificed 30 min after the Evans Blue solution administration and colons, feet, ears, and intestines were harvested. The liver was also harvested for RNA analysis.
(§4) RNA was isolated from the liver for RT-PCR analysis of C1-INH and Factor 12 mRNAs. […]

Factor 12 mRNA = experiment: Liver RT-PCR of Factor 12 mRNA, C1-INH ASO-induced angioedema model (Example 9); type: in vivo, mouse; conditions: all groups given ISIS 461756 12.5 mg/kg sc twice a week, test ASO 40 mg/kg sc twice a week 3 weeks, vs PBS control not treated with ISIS 461756
Method: as §1, §2, §3, §4

mice [2] = experiment: Evans Blue vascular permeability, ISIS 461756-induced model (Example 9); type: in vivo, mouse; conditions: all groups given ISIS 461756 12.5 mg/kg sc twice a week; test ASO 40 mg/kg sc twice a week 3 weeks; vs untreated PBS control
Method: as §1, §2, §3
The harvested tissues from the feet, colon, and intestine were placed in formamide solution overnight to leach out the Evans Blue dye. The formamide solution containing feet tissue was heated to 55° C. and left overnight. The color intensity of the dye-infused formamide solution was then measured at OD600nm. The data is presented in Table 20 as percent increase or reduction compared to the PBS control not treated with ISIS 461756.

Factor 12 = experiment: Spectrozyme Factor 12a based amidolytic assay for Factor 12 activation in plasma (Example 8); type: in vivo; conditions: mouse plasma; for % F12 activation compared to the PBS control: dextran sulfate
Method: The effect of antisense inhibition of kallikrein (KLKB1) mRNA on Factor 12 protein activation was evaluated.
Group 1 consisted of 8 mice and was treated with PBS administered subcutaneously twice a week for 3 weeks. No other treatment was administered to Group 1 which served as a control group to measure Factor 12 activation.
Groups 2, 3, 4, 5, and 6 consisted of 8 mice each and were treated with 2.5 mg/kg, 5 mg/kg, 10 mg/kg, 20 mg/kg, or 40 mg/kg (corresponding to 5 mg/kg, 10 mg/kg, 20 mg/kg, 40 mg/kg, or 80 mg/kg per week), respectively of ISIS 482584 administered subcutaneously twice a week for 3 weeks. Groups 2-6 served as the treatment groups for measuring the effect of ISIS 482584 on Factor 12 activation.
At the end of the treatment period, plasma was harvested from the mice for the Spectrozyme® Factor 12a based amidolytic assay for Factor 12 in plasma.
Plasma (5 μL) was added to 85 μL of PBS with 1 ug/ml dextran sulfate (500 kDa) in a 96 well polypropelene microplate and the solution was incubated for 5 minutes at room temperature. Spectrozyme® FXIIa (10 μL of a 2 mM solution) and 0.2 mM KALLISTOP™ solution was added and the absorbance kinetic was measured at 405 nm. Factor 12 activation was measured in the linear phase of absorbance accumulation. The results are presented in Table 18 as a percentage of Factor 12 activation measured in the PBS control sample.

Substance | Percent inhibition of mRNA expression, Factor 12 mRNA (Factor 12 mRNA) [%] | Percent change in vascular permeability, Colon (mice [2]) [%] | Percent change in vascular permeability, Feet (mice [2]) [%] | Percent change in vascular permeability, Intestines (mice [2]) [%] | further results
HOE-140 |  |  |  |  | Percentage of OD620 nm of Evans Blue dye compared to the PBS basal control to measure vascular leakage, Plasma (mice [1]): 70%
ISIS 141923: control oligonucleotide, a 5-10-5 MOE gapmer with no known murine target, CCTTCCCTGAAGGTTCCTCC; SEQ ID NO: 38 (sugars from the 5' end e5 d10 e5, backbone and methylation of C not given here) | 0 | 2 | 80 | 14 | Percent inhibition of mRNA expression, C1-INH mRNA (C1-INH mRNA): 79%
ISIS 461756: 5-10-5 MOE gapmer AAAGTGGTTGATACCCTGGG (SEQ ID NO: 37) which targets murine C1 inhibitor mRNA; induces vascular permeability (sugars from the 5' end e5 d10 e5, backbone and methylation of C not given here) | 0 | 13 | 70 | 27 | 
ISIS 482584: 5-10-5 MOE gapmer targeting kallikrein (KLKB1), GGCATATTGGTTTTTGGAAT; SEQ ID NO: 39 (sugars from the 5' end e5 d10 e5, backbone and methylation of C not given here) |  |  |  |  | % F12 activation compared to the PBS control (Factor 12; 5 mg/kg/wk sc 3 weeks): 82%; % F12 activation compared to the PBS control (Factor 12; 10 mg/kg/wk sc 3 weeks): 63%; % F12 activation compared to the PBS control (Factor 12; 20 mg/kg/wk sc 3 weeks): 47%; % F12 activation compared to the PBS control (Factor 12; 40 mg/kg/wk sc 3 weeks): 24%; % F12 activation compared to the PBS control (Factor 12; 80 mg/kg/wk sc 3 weeks): 14%; activation of Factor 12 (Factor 12; 5-80 mg/kg/wk sc 3 weeks): decreased activation of Factor 12
